In patent US20070060610A1, “Methods and pharmaceutical formulations for increasing bioavailability” (priority 2005, published 2007):

System: Caco-2 monolayers
Conditions: FIG. 1A; different pre-incubation times; Rhodamine 123 13 μM; TPGS 1000 33 μM on both sides
Procedure: Caco-2 cell culture and handling: Caco-2 cells, clone C2BBe1, were purchased from American Type Culture Collection (ATCC; Manassas, Va.) and used from passage 70-92 with Corning Incorp. Life Sciences (Acton, Mass.) polycarbonate membranes (3460; 12-well, pore size 0.4 μm, 1.13 cm^2). Cells were seeded at a density of ˜60,000 cells/cm^2 and grown at ˜37° C. in a controlled atmosphere of ˜5% CO2 with a relative humidity of ˜85%. The culture medium consisted of DMEM supplemented with 10% FBS, 1% non-essential amino acids, 100 μg/mL streptomycin and 100 U/mL penicillin. Transepithelial electrical resistance (TEER) was measured with a hand-held REMS electrical volt-ohm meter EVOM (World Precision Instruments; Sarasota, Fla.). […]
Using the transport assay, drug transport was assessed in absorptive (apical to basolateral, Ap→Bl) and secretory (Bl→Ap) directions. […]
Cell monolayers were agitated using an orbital shaker (IKA®—Werke GmbH & CO KG; Staufen, Germany) at 100±20 rpm. […] RHO was quantified with a Cytofluor-2 fluorescence plate reader (Perkin Elmer Biosystems; Weiterstadt, Germany) operating at excitation wavelength of 485 nm and emission wavelength of 530 nm to measure RHO.
Apparent Permeability and statistical analysis: flux was determined using receiver compartment RHO steady-state appearance rates (ΔQ/Δt). Papp across Caco-2 monolayers was calculated via: [formula] […]

d-α-tocopheryl polyethylene glycol succinate [TPGS 1000]
effect of pre-exposure on amount of compound transported across the cells (apical to basolateral): effectively increases the amount of compound transported across the cells (apical to basolateral) in a time-dependent fashion
